Here are results for nine molecules from patent publication US20260022143A1, “Cyclic Peptide Inhibitors of IL-23” (JANSSEN PHARMACEUTICA NV, priority 2022, published 2026).

Starred links: 1 amine or outer side, 2 acyl side, 3 side chain; linkers in the order of their positions; H or OH if unused. Positions of bridges follow the written chain, without caps; N, C: chain ends. Non-standard residues stand in square brackets, D forms with d. Residues, ends and D or L forms follow the SMILES beside them. *: point of attachment. Me3N+(CH2)2O(CH2)2O(CH2)2CO = C[N+](C)(C)CCOCCOCCC(=O)*; CH2CH2OCH2CH2OCH2CH2NMe3+ = C[N+](C)(C)CCOCCOCC*; Trp(7-Me) = Cc1cccc2c(C[C@H](N)C(=O)O)c[nH]c12; Dab(NMeAc) = CC(=O)N(C)CC[C@H](N)C(=O)O; X1 = CN(CC[C@H](N[*:1])C(=O)[*:2])[*:3]; CH2CH2OCH2CH2NMe3+ = C[N+](C)(C)CCOCC*; 2Nal = N[C@@H](Cc1ccc2ccccc2c1)C(=O)O; AEF = NCCOc1ccc(C[C@H](N)C(=O)O)cc1; 3Pal = N[C@@H](Cc1cccnc1)C(=O)O; Lys(Me) = CNCCCC[C@H](N)C(=O)O; Pen = CC(C)(S)[C@H](N)C(=O)O; X37 = C[N+]1(C)CCN(CC*)CC1; X57 = C[N+]1(C)CCC(CC*)CC1; Thp = NC1(C(=O)O)CCOCC1; X17 = C[N+]1(CC*)CCOCC1; Sar = CNCC(=O)O

The target of data set [1] is T1, IL-23R (Homo sapiens, UniProt Q5VWK5).
T1 construct: host or cells: HEK293
T1 sequence (Q5VWK5 24-629): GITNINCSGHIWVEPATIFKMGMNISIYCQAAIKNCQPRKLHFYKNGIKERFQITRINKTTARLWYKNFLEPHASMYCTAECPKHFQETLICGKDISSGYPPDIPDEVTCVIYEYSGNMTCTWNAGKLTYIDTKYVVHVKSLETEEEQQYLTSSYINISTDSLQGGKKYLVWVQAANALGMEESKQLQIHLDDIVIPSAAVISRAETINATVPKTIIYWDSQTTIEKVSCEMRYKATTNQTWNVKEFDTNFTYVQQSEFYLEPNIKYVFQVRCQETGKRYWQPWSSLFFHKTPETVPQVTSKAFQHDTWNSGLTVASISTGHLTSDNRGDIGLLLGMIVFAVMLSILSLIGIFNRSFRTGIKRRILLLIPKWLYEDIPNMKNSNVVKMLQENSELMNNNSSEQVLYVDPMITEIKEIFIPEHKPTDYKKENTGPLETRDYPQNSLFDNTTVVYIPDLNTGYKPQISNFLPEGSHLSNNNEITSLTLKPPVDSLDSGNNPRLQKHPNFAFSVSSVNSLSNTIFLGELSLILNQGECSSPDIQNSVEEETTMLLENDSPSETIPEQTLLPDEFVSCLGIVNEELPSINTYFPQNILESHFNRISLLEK
As to the kind of experiment: IL23R Reporter Assay. The data set is classed as cell-based. The following applies: HEK293 cells containing IL-23R, IL-12RP1 and STAT-inducible firefly luciferase reporter; 10 ng/mL IL-23 (EC90); 5 h at 37° C.; read-out: IL23R Reporter Assay. On the technique in general: Reporter assays use an easily measured gene product as a stand-in for the process of interest.

The nature of data set [2]: Exposed Polar Surface Area (EPSA). The data set is classed as physicochemical. The following applies: SFC on Chirex 3014 column; sample 1 mM DMSO stock; read-out: EPSA. Summed up:
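SFC retention on a Chirex 3014 (S)-valine/(R)-1-(α-naphthyl)ethylamine column, 35 °C, CO2 with MeOH (20 mM ammonium formate) gradient 5–60% at 20%/min, 14 MPa outlet. Retention times converted to EPSA (Å^2) via linear calibration with 8 standards; samples from 1 mM DMSO stock, run in duplicate.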

`CC(=O)N[C@@H]1C(=O)N[C@@H](CC(=O)N(C)C)C(=O)N[C@@H]([C@@H](C)O)C(=O)N[C@@H](Cc2c[nH]c3c(C)cccc23)C(=O)N[C@@H](CCN(C)C(=O)CCOCCOCC[N+](C)(C)C)C(=O)N[C@H](C(=O)N[C@@H](Cc2ccc(OCCN)cc2)C(=O)N[C@@H](Cc2ccc3ccccc3c2)C(=O)NC2(C(=O)N[C@@H](CCN(C)C(=O)CCOCCOCC[N+](C)(C)C)C(=O)N[C@@H](CC(N)=O)C(=O)N[C@@H](Cc3cccnc3)C(=O)N(C)CC(=O)N(C)C)CCOCC2)C(C)(C)SSC1(C)C` [compound 175, MeCO-Pen(3)-N(N(Me)2)-T-7MeW-Dab(NMecPEG3a)-Pen(3)-AEF-2Nal-THP-Dab(NMecPEG3a)-N-3Pya-Sar-CON(Me)2] (Ac-[Pen]D(NMe2)T[Trp(7-Me)][X1](Me3N+(CH2)2O(CH2)2O(CH2)2CO)[Pen][AEF][2Nal][Thp][X1](Me3N+(CH2)2O(CH2)2O(CH2)2CO)N[3Pal][Sar]-NMe2; disulfide 1-6 (inferred)): the IC50 in data set [1] stood at 6.3 nM. In addition, in data set [2], the EPSA turned out to be 140 A^2.
Consider `CC(=O)N(C)CCCC[C@@H]1NC(=O)[C@H](Cc2c[nH]c3c(C)cccc23)NC(=O)[C@H]([C@@H](C)O)NC(=O)[C@H](CC(=O)N(C)C)NC(=O)[C@@H](NC(=O)CCOCCOCC[N+](C)(C)C)C(C)(C)SSC(C)(C)[C@@H](C(=O)N[C@@H](Cc2ccc(OCCN)cc2)C(=O)N[C@@H](Cc2ccc3ccccc3c2)C(=O)NC2(C(=O)N[C@@H](CCN(C)C(C)=O)C(=O)N[C@@H](CC(N)=O)C(=O)N[C@@H](Cc3cccnc3)C(=O)N(C)CC(=O)N(C)C)CCOCC2)NC1=O` [compound 177, cPEG3aCO-Pen(3)-N(N(Me)2)-T-7MeW-K(NMeAc)-Pen(3)-AEF-2Nal-THP-Dab(NMeAc)-N-3Pya-Sar-CON(Me)2] ({Me3N+(CH2)2O(CH2)2O(CH2)2CO}-[Pen]D(NMe2)T[Trp(7-Me)][Lys(Me)](Ac)[Pen][AEF][2Nal][Thp][Dab(NMeAc)]N[3Pal][Sar]-NMe2; disulfide 1-6), for which the IC50 in data set [1] was 2 nM. Besides, the EPSA in data set [2] was 149 A^2.
Regarding `CC(=O)N(C)CC[C@H](NC(=O)C1(NC(=O)[C@H](Cc2ccc3ccccc3c2)NC(=O)[C@H](Cc2ccc(OCCN)cc2)NC(=O)[C@H]2NC(=O)[C@H](CCC(=O)N(C)C)NC(=O)[C@H](Cc3c[nH]c4c(C)cccc34)NC(=O)[C@H]([C@@H](C)O)NC(=O)[C@H](CC(N)=O)NC(=O)[C@@H](NC(=O)CCOCCOCC[N+](C)(C)C)C(C)(C)SSC2(C)C)CCOCC1)C(=O)N[C@@H](CC(N)=O)C(=O)N[C@@H](Cc1cccnc1)C(=O)N(C)CC(N)=O` [compound 178, cPEG3aCO-Pen(3)-N-T-7MeW-Q(N(Me)2)-Pen(3)-AEF-2Nal-THP-Dab(NMeAc)-N-3Pya-Sar-CONH2] ({Me3N+(CH2)2O(CH2)2O(CH2)2CO}-[Pen]NT[Trp(7-Me)]E(NMe2)[Pen][AEF][2Nal][Thp][Dab(NMeAc)]N[3Pal][Sar]-NH2; disulfide 1-6), the IC50 in data set [1] was determined as 2 nM. Also, the EPSA in data set [2] worked out at 154 A^2.
The like results for `CC(=O)N[C@@H]1C(=O)N[C@@H](CC(=O)N(C)C)C(=O)N[C@@H]([C@@H](C)O)C(=O)N[C@@H](Cc2c[nH]c3c(C)cccc23)C(=O)N[C@@H](CCCCN(C)C(C)=O)C(=O)N[C@H](C(=O)N[C@@H](Cc2ccc(OCCOCCOCC[N+](C)(C)C)cc2)C(=O)N[C@@H](Cc2ccc3ccccc3c2)C(=O)NC2(C(=O)N[C@@H](CCCCN(C)C(C)=O)C(=O)N[C@@H](CC(N)=O)C(=O)N[C@@H](Cc3cccnc3)C(=O)N(C)CC(=O)N(C)C)CCOCC2)C(C)(C)SSC1(C)C` [compound 183, MeCO-Pen(3)-N(N(Me)2)-T-7MeW-K(NMeAc)-Pen(3)-APEG3F-2Nal-THP-K(NMeAc)-N-3Pya-Sar-CON(Me)2] (Ac-[Pen]D(NMe2)T[Trp(7-Me)][Lys(Me)](Ac)[Pen]Y(CH2CH2OCH2CH2OCH2CH2NMe3+)[2Nal][Thp][Lys(Me)](Ac)N[3Pal][Sar]-NMe2; disulfide 1-6) were, in that order, 1.8 nM and 133 A^2.
Consider `CC(=O)N(C)CCCC[C@@H]1NC(=O)[C@H](Cc2c[nH]c3c(C)cccc23)NC(=O)[C@H]([C@@H](C)O)NC(=O)[C@H](CC(=O)N(C)C)NC(=O)[C@@H](NC(=O)CCOCCOCC[N+](C)(C)C)C(C)(C)SSC(C)(C)[C@@H](C(=O)N[C@@H](Cc2ccc(OCCOCCOCC[N+](C)(C)C)cc2)C(=O)N[C@@H](Cc2ccc3ccccc3c2)C(=O)NC2(C(=O)N[C@@H](CCC(=O)O)C(=O)N[C@@H](CC(N)=O)C(=O)N[C@@H](Cc3cccnc3)C(=O)N(C)CC(=O)N(C)C)CCOCC2)NC1=O` [compound 184, cPEG3aCO-Pen(3)-N(N(Me)2)-T-7MeW-K(NMeAc)-Pen(3)-APEG3F-2Nal-THP-E-N-3Pya-Sar-CON(Me)2] ({Me3N+(CH2)2O(CH2)2O(CH2)2CO}-[Pen]D(NMe2)T[Trp(7-Me)][Lys(Me)](Ac)[Pen]Y(CH2CH2OCH2CH2OCH2CH2NMe3+)[2Nal][Thp]EN[3Pal][Sar]-NMe2; disulfide 1-6), for which the IC50 in data set [1] worked out at 3.4 nM. In data set [2], the EPSA was determined as 142 A^2.
For the molecule `CC(=O)N(C)CCCC[C@@H]1NC(=O)[C@H](Cc2c[nH]c3c(C)cccc23)NC(=O)[C@H]([C@@H](C)O)NC(=O)[C@H](CC(=O)N(C)C)NC(=O)[C@@H](NC(=O)CCOCCOCC[N+](C)(C)C)C(C)(C)SSC(C)(C)[C@@H](C(=O)N[C@@H](Cc2ccc(OCCC3CC[N+](C)(C)CC3)cc2)C(=O)N[C@@H](Cc2ccc3ccccc3c2)C(=O)NC2(C(=O)N[C@@H](CCCCN(C)C(C)=O)C(=O)N[C@@H](CC(N)=O)C(=O)N[C@@H](Cc3cccnc3)C(=O)N(C)CC(=O)N(C)C)CCOCC2)NC1=O` [compound 187, cPEG3aCO-Pen(3)-N(N(Me)2)-T-7MeW-K(NMeAc)-Pen(3)-4DMPEF-2Nal-THP-K(NMeAc)-N-3Pya-Sar-CON(Me)2] ({Me3N+(CH2)2O(CH2)2O(CH2)2CO}-[Pen]D(NMe2)T[Trp(7-Me)][Lys(Me)](Ac)[Pen]Y(X57)[2Nal][Thp][Lys(Me)](Ac)N[3Pal][Sar]-NMe2; disulfide 1-6), in data set [1], the IC50 was determined as 86 nM. Moreover, the EPSA in data set [2] came out at 137 A^2.
The like results for `CC(=O)N(C)CCCC[C@@H]1NC(=O)[C@H](Cc2c[nH]c3c(C)cccc23)NC(=O)[C@H]([C@@H](C)O)NC(=O)[C@H](CC(=O)N(C)C)NC(=O)[C@@H](NC(=O)CCOCCOCC[N+](C)(C)C)C(C)(C)SSC(C)(C)[C@@H](C(=O)N[C@@H](Cc2ccc(OCCN3CC[N+](C)(C)CC3)cc2)C(=O)N[C@@H](Cc2ccc3ccccc3c2)C(=O)NC2(C(=O)N[C@@H](CCCCN(C)C(C)=O)C(=O)N[C@@H](CC(N)=O)C(=O)N[C@@H](Cc3cccnc3)C(=O)N(C)CC(=O)N(C)C)CCOCC2)NC1=O` [compound 193, cPEG3aCO-Pen(3)-N(N(Me)2)-T-7MeW-K(NMeAc)-Pen(3)-4DMPzEF-2Nal-THP-K(NMeAc)-N-3Pya-Sar-CON(Me)2] ({Me3N+(CH2)2O(CH2)2O(CH2)2CO}-[Pen]D(NMe2)T[Trp(7-Me)][Lys(Me)](Ac)[Pen]Y(X37)[2Nal][Thp][Lys(Me)](Ac)N[3Pal][Sar]-NMe2; disulfide 1-6) were, in that order, 40 nM and 135 A^2.
The like results for `CC(=O)N(C)CCCC[C@@H]1NC(=O)[C@H](Cc2c[nH]c3c(C)cccc23)NC(=O)[C@H]([C@@H](C)O)NC(=O)[C@H](CC(=O)N(C)C)NC(=O)[C@@H](NC(=O)CCOCCOCC[N+](C)(C)C)C(C)(C)SSC(C)(C)[C@@H](C(=O)N[C@@H](Cc2ccc(OCC[N+]3(C)CCOCC3)cc2)C(=O)N[C@@H](Cc2ccc3ccccc3c2)C(=O)NC2(C(=O)N[C@@H](CCCCN(C)C(C)=O)C(=O)N[C@@H](CC(N)=O)C(=O)N[C@@H](Cc3cccnc3)C(=O)N(C)CC(=O)N(C)C)CCOCC2)NC1=O` [compound 198, cPEG3aCO-Pen(3)-N(N(Me)2)-T-7MeW-K(NMeac)-Pen(3)-MMoEF-2Nal-THP-K(NMeAc)-N-3Pya-Sar-CON(Me)2] ({Me3N+(CH2)2O(CH2)2O(CH2)2CO}-[Pen]D(NMe2)T[Trp(7-Me)][Lys(Me)](Ac)[Pen]Y(X17)[2Nal][Thp][Lys(Me)](Ac)N[3Pal][Sar]-NMe2; disulfide 1-6) were, in that order, 3.1 nM and 144 A^2.
The corresponding values for `CC(=O)N(C)CCCC[C@@H]1NC(=O)[C@H](Cc2c[nH]c3c(C)cccc23)NC(=O)[C@H]([C@@H](C)O)NC(=O)[C@H](CC(=O)N(C)C)NC(=O)[C@@H](NC(=O)CCOCCOCC[N+](C)(C)C)C(C)(C)SSC(C)(C)[C@@H](C(=O)N[C@@H](Cc2ccc(OCCOCC[N+](C)(C)C)cc2)C(=O)N[C@@H](Cc2ccc3ccccc3c2)C(=O)NC2(C(=O)N[C@@H](CCCCN(C)C(C)=O)C(=O)N[C@@H](CC(N)=O)C(=O)N[C@@H](Cc3cccnc3)C(=O)N(C)CC(=O)N(C)C)CCOCC2)NC1=O` [compound 199, cPEG3aCO-Pen(3)-N(N(Me)2)-T-7MeW-K(NMeAc)-Pen(3)-APEG2F-2Nal-THP-K(NMeAc)-N-3Pya-Sar-CON(Me)2] ({Me3N+(CH2)2O(CH2)2O(CH2)2CO}-[Pen]D(NMe2)T[Trp(7-Me)][Lys(Me)](Ac)[Pen]Y(CH2CH2OCH2CH2NMe3+)[2Nal][Thp][Lys(Me)](Ac)N[3Pal][Sar]-NMe2; disulfide 1-6) are 3 nM and 141 A^2.
